Marks after values point to notes of the source that are not given here.
Columns and labels:
Experiment in all cases: 10-day proliferation (CTG), SPLAM titration + 1000 nM Compound A, Bliss (Example 5; Tables 12-19)
Format in all cases: cell-based
Parameters in all cases: key: GDI scale -100 to 100; 0 = cell number at T0; <0 cytotoxic
Settings in all cases: alone or + 1 uM Cmpd A
RT112/84 = tested on: RT112/84
Experimental: (§1) Synergy was measured across the Indisulam titration with 1000 nM Compound A by Bliss Independence analysis. Bliss scores >10 are indicated by “*” and are considered synergistic. […] Synergy as reported using Bliss may be underrepresented within cytotoxic dose ranges. Growth death index values are shown for the combination titration and each single agent Compound A (Cmpd A) and Indisulam on a scale of −100 to 100 with the midpoint (0) being the number of cells at the beginning of the combination (T0). Scores less than 0 are indicated with “**” and are representative of a cytotoxic response. Bliss and GDI values are shown for five MTAP-deficient cell lines: NCI-1H838 (12A), SW900 (12B), RT112/84 (12C), UMUC5 (121D), and UMUC11 (12E).
(§2) A 10-day proliferation assay was performed in a panel of 5 MTAP-deficient and 2 wild type non-small cell lung and bladder cancer cell lines. Optimal cell seeding for all cell lines was determined by assessing the growth over a range of seeding densities in a 384-well format to identify conditions that permitted proliferation for 10 days. Cells were then plated at the optimal seeding density and treated with 20-point, two-fold dilution series of each of four structurally different SPLAMs in combination with a 1000 nM fixed concentration of Compound A. Single agent titrations for Compound A and each SPLAM were included for comparison. Concentrations tested for each SPLAM alone or in combination ranged from 0.04 nM to 20,000 nM. A plate of cells was harvested at the time of compound addition to quantify the number of cells at the start of the combination (T0). For cell quantification, the harvested cells were lysed with Promega CellTiter-Glo (CTG) reagent according to the manufacturer's protocol and the chemiluminescent signal was detected as described in Example 1 above. Cells were incubated with the drug combinations at 37° C. with 5% CO2 for 10 days. Cells were then lysed with CTG and the chemiluminescent signal was measured.
(§3) CTG values obtained after the 10-day treatment were background subtracted and expressed as a percent of the T0 value set at 100%. Data were plotted against compound concentration and fit with a four-parameter equation to generate single agent dose response curves. Percent inhibition was determined for each combination and single agent concentration compared to a DMSO control. In addition, the overall net growth or death of the cells was calculated and reported as a growth death index (GDI) value on a scale of −100 to 100 with the midpoint (0) being the number of cells at the beginning of the combination (T0).
(§4) Predicted inhibition was calculated using (Ea+Eb)−(Ea*Eb) where E equals the effect (inhibition) of each single agent (a and b). A difference between the observed inhibition percentage and the predicted inhibition percentage greater than 10% was considered synergistic. A Bliss score was only reported for combinations eliciting >20% growth inhibition (GDI value <80). Since Bliss is calculated based on growth inhibition, scores within cytotoxic dose ranges may not accurately reflect synergistic cytoxicity.
(§5) Synergy was measured across the E7820 titration with 1000 nM Compound A by Bliss Independence analysis. Bliss scores >10 are indicated by “*” and are considered synergistic. […] Synergy as reported using Bliss may be underrepresented within cytotoxic dose ranges. Growth death index values are shown for the combination titration and each single agent Compound A (Cmpd A) and Indisulam on a scale of −100 to 100 with the midpoint (0) being the number of cells at the beginning of the combination (T0). Scores less than 0 are indicated by “**” and are representative of a cytotoxic response. Bliss and GDI values are shown for five MTAP-deficient cell lines: NCI-1H838 (14A), SW900 (14B), RT112/84 (14C), UMUC5 (141)), and UMUC11 (14E).
(§6) Synergy was measured across the Chloroquinoxaline Sulfonamide titration with 1000 nM Compound A by Bliss Independence analysis.

SW900 = tested on: SW900
Experimental: as §1, §2, §3, §4, §5, §6

UMUC11 = tested on: UMUC11
Experimental: as §1, §2, §3, §4, §5, §6

UMUC5 = tested on: UMUC5
Experimental: as §1, §2, §3, §4, §5, §6

Structure (SMILES): NS(=O)(=O)c1ccc(S(=O)(=O)Nc2cccc3c(Cl)c[nH]c23)cc1 [Indisulam, N-(3-chloro-1H-indol-7-yl)benzene-1,4-disulfonamide]
- GDI (RT112/84; SPLAM 0.04 nM): 98
- GDI (RT112/84; SPLAM 0.1 nM): 100
- GDI (RT112/84; SPLAM 0.2 nM): 100
- GDI (RT112/84; SPLAM 0.3 nM): 100
- GDI (RT112/84; SPLAM 0.6 nM): 96
- GDI (RT112/84; SPLAM 1.2 nM): 95
- GDI (RT112/84; SPLAM 2.4 nM): 100
- GDI (RT112/84; SPLAM 4.9 nM): 100
- GDI (RT112/84; SPLAM 9.8 nM): 100
- GDI (RT112/84; SPLAM 19.5 nM): 100
- GDI (RT112/84; SPLAM 39.1 nM): 100
- GDI (RT112/84; SPLAM 78.1 nM): 100
- GDI (RT112/84; SPLAM 156.3 nM): 99
- GDI (RT112/84; SPLAM 312.5 nM): 44
- GDI (RT112/84; SPLAM 625 nM): 12
- GDI (RT112/84; SPLAM 1250 nM): −34**
- GDI (RT112/84; SPLAM 2500 nM): −76**
- GDI (RT112/84; SPLAM 5000 nM): −63**
- GDI (RT112/84; SPLAM 10000 nM): −74**
- GDI (RT112/84; SPLAM 20000 nM): −92**
- GDI (SW900; SPLAM 0.04 nM): 100
- GDI (SW900; SPLAM 0.1 nM): 98
- GDI (SW900; SPLAM 0.2 nM): 94
- GDI (SW900; SPLAM 0.3 nM): 100
- GDI (SW900; SPLAM 0.6 nM): 100
- GDI (SW900; SPLAM 1.2 nM): 100
- GDI (SW900; SPLAM 2.4 nM): 100
- GDI (SW900; SPLAM 4.9 nM): 100
- GDI (SW900; SPLAM 9.8 nM): 100
- GDI (SW900; SPLAM 19.5 nM): 100
- GDI (SW900; SPLAM 39.1 nM): 100
- GDI (SW900; SPLAM 78.1 nM): 100
- GDI (SW900; SPLAM 156.3 nM): 100
- GDI (SW900; SPLAM 312.5 nM): 34
- GDI (SW900; SPLAM 625 nM): −3**
- GDI (SW900; SPLAM 1250 nM): −33**
- GDI (SW900; SPLAM 2500 nM): −61**
- GDI (SW900; SPLAM 5000 nM): −56**
- GDI (SW900; SPLAM 10000 nM): −58**
- GDI (SW900; SPLAM 20000 nM): −60**
- GDI (UMUC11; SPLAM 0.04 nM): 100
- GDI (UMUC11; SPLAM 0.1 nM): 100
- GDI (UMUC11; SPLAM 0.2 nM): 100
- GDI (UMUC11; SPLAM 0.3 nM): 100
- GDI (UMUC11; SPLAM 0.6 nM): 100
- GDI (UMUC11; SPLAM 1.2 nM): 100
- GDI (UMUC11; SPLAM 2.4 nM): 100
- GDI (UMUC11; SPLAM 4.9 nM): 100
- GDI (UMUC11; SPLAM 9.8 nM): 100
- GDI (UMUC11; SPLAM 19.5 nM): 100
- GDI (UMUC11; SPLAM 39.1 nM): 100
- GDI (UMUC11; SPLAM 78.1 nM): 100
- GDI (UMUC11; SPLAM 156.3 nM): 100
- GDI (UMUC11; SPLAM 312.5 nM): 73
- GDI (UMUC11; SPLAM 625 nM): 35
- GDI (UMUC11; SPLAM 1250 nM): 13
- GDI (UMUC11; SPLAM 2500 nM): 5
- GDI (UMUC11; SPLAM 5000 nM): 2
- GDI (UMUC11; SPLAM 10000 nM): 2
- GDI (UMUC11; SPLAM 20000 nM): 1
- GDI (UMUC5; SPLAM 0.04 nM): 100
- GDI (UMUC5; SPLAM 0.1 nM): 100
- GDI (UMUC5; SPLAM 0.2 nM): 100
- GDI (UMUC5; SPLAM 0.3 nM): 100
- GDI (UMUC5; SPLAM 0.6 nM): 100
- GDI (UMUC5; SPLAM 1.2 nM): 98
- GDI (UMUC5; SPLAM 2.4 nM): 100
- GDI (UMUC5; SPLAM 4.9 nM): 100
- GDI (UMUC5; SPLAM 9.8 nM): 100
- GDI (UMUC5; SPLAM 19.5 nM): 100
- GDI (UMUC5; SPLAM 39.1 nM): 100
- GDI (UMUC5; SPLAM 78.1 nM): 100
- GDI (UMUC5; SPLAM 156.3 nM): 94
- GDI (UMUC5; SPLAM 312.5 nM): 69
- GDI (UMUC5; SPLAM 625 nM): 26
- GDI (UMUC5; SPLAM 1250 nM): 5
- GDI (UMUC5; SPLAM 2500 nM): 3
- GDI (UMUC5; SPLAM 5000 nM): 3
- GDI (UMUC5; SPLAM 10000 nM): 2
- GDI (UMUC5; SPLAM 20000 nM): 2
